Assay results from PubChem BioAssay (NCI).
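Test compounds were applied to cells in 96-well plates for 48 hours at 5 doses. The concentration for full growth arrest is given as TGI.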

Columns and labels:
Experiment in all cases: NCI anticancer screen, dose series, 48 h
[1] = system: 786-0 renal
[2] = system: HT29 colon
[3] = system: MCF7 breast
[4] = system: MDA-MB-231 breast
[5] = system: NCI-H226 lung
[6] = system: NCI-H522 lung
[7] = system: NCI/ADR-RES ovarian
[8] = system: OVCAR-4 ovarian
[9] = system: OVCAR-5 ovarian
[10] = system: RPMI-8226 leukemia
[11] = system: SW-620 colon
[12] = system: TK-10 renal

| SMILES | TGI [1] | TGI [2] | TGI [3] | TGI [4] | TGI [5] | TGI [6] | TGI [7] | TGI [8] | TGI [9] | TGI [10] | TGI [11] | TGI [12] |
| --- | --- | --- | --- | --- | --- | --- | --- | --- | --- | --- | --- | --- |
| CC1CC[C@]2(C(=O)O)CCC3(C)C(=C2[C@H]1C)C=CC1[C@@]2(C)CC[C@H](O)C(C)(C)C2CC[C@]13C (some centres undefined) | > 100 µM | > 100 µM | > 100 µM | 70 µM | > 100 µM | > 100 µM | > 100 µM | > 100 µM | > 100 µM | > 100 µM | > 100 µM | > 100 µM |
| CC1=Nn2c(nc3sc4c(c3c2=O)CCCC4)SC1 | > 100 µM | > 100 µM | > 100 µM | > 100 µM | > 100 µM | > 100 µM | > 100 µM | > 100 µM | > 100 µM | > 100 µM | > 100 µM | > 100 µM |
| COc1ccc(N=C/C=C/Nc2ccc(OC)cc2)cc1 | 15.6 µM | 8.31 µM | 16.3 µM | 6.02 µM | 32.6 µM | 23.7 µM | 25 µM | 9.99 µM | 29.6 µM | 30.4 µM | 5.48 µM | 27.4 µM |
| COC(=O)C(Cc1ccccc1)NC(=O)CNC(=O)CSc1nnc(COc2ccc(Cl)cc2)n1-c1ccccc1 (centres undefined) | 30.5 µM | 35.3 µM | 35.5 µM | 32.7 µM | 36.5 µM | 5.45 µM | 42 µM | 21.7 µM | 33.6 µM | 21.8 µM | 47 µM | 27.7 µM |
| NNC(=O)c1ccccc1NC(=O)/C(=C/c1ccccc1)NC(=O)c1ccccc1 | > 100 µM | > 100 µM | > 100 µM | > 100 µM | > 100 µM | > 100 µM | > 100 µM | > 100 µM | > 100 µM | > 100 µM | > 100 µM | > 100 µM |
| COC(=O)c1c(O)ccc2c1c1c(n2C)C(=O)c2ccccc2C1=O | 57 µM | > 100 µM | > 100 µM | 25.8 µM | > 100 µM | > 100 µM | > 100 µM | 80.6 µM | > 100 µM | 64.8 µM | > 100 µM | 86.4 µM |
| COc1cc2c(cc1OCCCC(=O)Nc1cc(C(=O)Nc3cc(C(=O)NCCCN(C)C)n(C)n3)n(C)n1)N=CC1CCCN1C2=O (centres undefined) | 35.5 µM | 30.8 µM | 29.5 µM | 39.5 µM | > 100 µM | 20.2 µM | 57.3 µM | 26.5 µM | 37.7 µM | 40.3 µM | 29.2 µM | 35.7 µM |
| COc1ccc(-c2cn3c(n2)sc2cc(C)ccc23)cc1 | 59.8 µM | > 100 µM | 95.7 µM | 42.4 µM | 62.2 µM | 51.4 µM | > 100 µM | 83.8 µM | > 100 µM | > 100 µM | > 100 µM | 47.3 µM |
| CSc1n[n+](C)cc(N)c1N | > 100 µM | > 100 µM | > 100 µM | > 100 µM | > 100 µM | > 100 µM | > 100 µM | > 100 µM | > 100 µM | > 100 µM | > 100 µM | > 100 µM |
| COc1ccc(-c2cc(-c3ccc(Nc4ccnc5cc(Cl)ccc45)cc3)nc(N)c2C#N)c2ccccc12 | > 100 µM | > 100 µM | > 100 µM | > 100 µM | > 100 µM | > 100 µM | > 100 µM | > 100 µM | > 100 µM | > 100 µM | > 100 µM | > 100 µM |
| O=C1/C(=C/c2cccs2)N=C(c2ccccc2)N1C1Nc2cc3c(cc2S1)NC(N1C(=O)/C(=C/c2cccs2)N=C1c1ccccc1)S3 (centres undefined) | 43.1 µM | > 100 µM | > 100 µM | > 100 µM | 48.3 µM | 31.4 µM | 33.6 µM | 96.9 µM | 75 µM | 51.7 µM | > 100 µM | > 100 µM |
| COC1CCC(OC2CC(C3(C)CCC4(CC(O)C(C)C(C(C)/C=C(\C)C(=O)C(C)CC(C)C(=O)O)O4)O3)OC3(OC(C4OC(O)(CO)C(C)CC4C)CC3C)C2C)OC1C (centres undefined) | 1.21 µM | 2.19 µM | 1.91 µM | 0.517 µM | 3.13 µM | 0.26 µM | 6.65 µM | 10.3 µM | 13.1 µM | < 0.0386 µM | 1.88 µM | 5.79 µM |
| CC(=O)Nc1ccc(Nc2nc(=O)[nH]c(=O)[nH]2)cc1 | > 100 µM | > 100 µM | > 100 µM | > 100 µM | > 100 µM | > 100 µM | > 100 µM | > 100 µM | > 100 µM | > 100 µM | > 100 µM | > 100 µM |
| c1ccc(N=NNNc2ccc(-c3nc4ccccc4[nH]3)cc2)cc1 | > 100 µM | 94.7 µM | 69.9 µM | > 100 µM | > 100 µM | > 100 µM | 75.1 µM | > 100 µM | > 100 µM | 42.4 µM | > 100 µM | > 100 µM |
| c1ccc2c(c1)SC1Sc3ccccc3[S+]21 (centres undefined) | > 62.4 µM | > 85.3 µM | > 69.2 µM | 80.3 µM | 96.9 µM | 26.1 µM | 51 µM | > 100 µM | > 100 µM | 49.9 µM | > 76.7 µM | 55.4 µM |
| O=C1NC(N2CCOCC2)=N/C1=C\c1ccccc1O | > 100 µM | > 100 µM | > 100 µM | > 100 µM | > 100 µM | > 100 µM | > 100 µM | > 100 µM | > 100 µM | > 100 µM | > 100 µM | > 100 µM |
| COc1cc2[nH]c(-c3ccccc3)cc(=O)c2cc1OC | > 100 µM | 56.7 µM | > 28.8 µM | > 87.3 µM | 53.6 µM | > 56.3 µM | > 100 µM | > 100 µM | > 100 µM | > 100 µM | > 100 µM | 98.7 µM |
